According to patent US8183243B2, “Melanocortin receptor agonists” (LG Life Sciences Ltd., priority 2008, dated 2012):

The molecules below were run against T1, MC4R (Homo sapiens, UniProt P32245) (assay: MCR agonistic activity (luciferase assay / cAMP accumulation assay) on MC4R). Settings: HEK cell lines expressing MC4R; method A (CRE-luciferase) or B (cAMP accumulation), not said which; read-out: EC50 value, agonistic activity to MC4R (range per group of Examples).
T1 construct: expressed in transfected cells; host or cells: HEK (Human Embryonic Kidney) permanent expression cell line HEK MC4R-Luc, co-expressing CRE-luciferase
T1 sequence (P32245 whole entry, species assumed): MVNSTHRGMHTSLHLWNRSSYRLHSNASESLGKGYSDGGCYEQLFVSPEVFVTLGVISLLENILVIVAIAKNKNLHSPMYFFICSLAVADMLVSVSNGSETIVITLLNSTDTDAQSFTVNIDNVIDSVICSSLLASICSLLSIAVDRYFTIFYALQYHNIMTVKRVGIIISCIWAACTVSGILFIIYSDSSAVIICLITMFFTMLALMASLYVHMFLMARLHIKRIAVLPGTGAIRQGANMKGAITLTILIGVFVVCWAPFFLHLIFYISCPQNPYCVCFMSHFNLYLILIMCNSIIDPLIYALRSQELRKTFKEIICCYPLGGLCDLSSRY
Format: cell-based
Outline: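 HEK cells stably expressing MC4R with a CRE-luciferase reporter treated 5 hours at 37 °C with serially diluted agonist (≤1% DMSO); luminescence expressed relative to 10 nM NDP-MSH, EC50 at half-maximal signal. Alternatively, cAMP measured after 30 minutes with compound plus 500 μM IBMX by [3H]-cAMP competition binding.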

`CN1CCN(C(=O)[C@@H]2C[C@H](N(C(=O)C(C)(C)CO)[C@H]3CC[C@@H](C)CC3)CN2C(=O)[C@@H]2CN(C3CC3)C[C@H]2c2ccc(F)cc2F)CC1` [Example 60, N-{(3S,5S)-1-{[(3S,4R)-1-cyclopropyl-4-(2,4-difluorophenyl)pyrrolidin-3-yl]carbonyl}-5-[(4-methylpiperazin-1-yl)carbonyl]pyrrolidin-3-yl}-N-(cis-4-methylcyclohexyl)-3-hydroxy-2,2-dimethylpropanamide] and `CC1CCC(N(C(=O)C2CCCO2)C2CC(C(=O)N3CCN(C)CC3)N(C(=O)C3CN(c4cccnn4)CC3c3ccc(F)cc3F)C2)CC1` (stereo not drawn) [Example 66] fall in the same range of EC50: 0.1 to 10 nM for the first, 0.1 to 10 nM for the second.

`CC(=O)N([C@H]1C[C@H](C(=O)N2CCN(C)CC2)N(C(=O)[C@@H]2CN(C(C)C)C[C@H]2c2ccc(Cl)cc2)C1)[C@H]1CC[C@@H](C)CC1` [Example 62, N-{(3S,5R)-1-{[(3S,4R)-4-(4-chlorophenyl)-1-isopropylpyrrolidin-3-yl]carbonyl}-5-[(4-methylpiperazin-1-yl)carbonyl]pyrrolidin-3-yl}-N-(cis-4-methylcyclohexyl)acetamide] and `CN1CCN(C(=O)[C@@H]2C[C@H](N(C(=O)[C@@H]3CCCO3)[C@H]3CC[C@@H](C)CC3)CN2C(=O)[C@H]2CN(C(C)(C)C)C[C@H]2c2ccc(Cl)cc2)CC1` [Example 74, (2S)-N-{(3S,5S)-1-{[(3R,4R)-1-tert-butyl-4-(4-chlorophenyl)pyrrolidin-3-yl]carbonyl}-5-[(4-methylpiperazin-1-yl)carbonyl]pyrrolidin-3-yl}-N-(cis-4-methylcyclohexyl)tetrahydrofuran-2-carboxamide] fall in the same range of EC50: 10 to 100 nM for the first, 10 to 100 nM for the second.

`Cc1ccc(N2C[C@@H](C(=O)N3C[C@@H](N(C(=O)C(C)(C)C)C4CCC(C)(C)CC4)C[C@H]3C(=O)N3CCN(C)CC3)[C@H](c3ccc(Cl)cc3)C2)nn1` [Example 63, N-{(3S,5S)-1-{[(3S,4R)-4-(4-chlorophenyl)-1-(6-methylpyridazine-3-yl)pyrrolidin-3-yl]carbonyl}-5-[(4-methylpiperazin-1-yl)carbonyl]pyrrolidin-3-yl}-N-(4,4-dimethylcyclohexyl)-2,2-dimethylpropanamide] and `CN1CCN(C(=O)[C@@H]2C[C@H](N(C(=O)C(C)(C)C)C3CCC(C)(C)CC3)CN2C(=O)[C@@H]2CN(c3ccccn3)C[C@H]2c2ccc(Cl)cc2)CC1` [Example 64, N-{(3S,5S)-1-{[(3S,4R)-4-(4-chlorophenyl)-1-pyridine-2-ylpyrrolidin-3-yl]carbonyl}-5-[(4-methylpiperazin-1-yl)carbonyl]pyrrolidin-3-yl}-N-(4,4-dimethylcyclohexyl)-2,2-dimethylpropanamide] fall in the same range of EC50: 10 to 100 nM for the first, 10 to 100 nM for the second.

First: CN1CCN(C(=O)[C@@H]2C[C@H](N(C(=O)[C@@H]3CCCO3)C3CCC(C)(C)CC3)CN2C(=O)[C@@H]2CN(c3ccccn3)C[C@H]2c2ccc(Cl)cc2)CC1 [Example 65, (2S)-N-{(3S,5S)-1-{[(3S,4R)-4-(4-chlorophenyl)-1-pyridine-2-ylpyrrolidin-3-yl]carbonyl}-5-[(4-methylpiperazin-1-yl)carbonyl]pyrrolidin-3-yl}-N-(4,4-dimethylcyclohexyl)tetrahydrofuran-2-carboxamide]
Second: Cc1ccccc1N1C[C@@H](C(=O)N2C[C@@H](N(C(=O)[C@@H]3CCCO3)[C@H]3CC[C@@H](C)CC3)C[C@H]2C(=O)N2CCN(C)CC2)[C@H](c2ccc(Cl)cc2)C1 [Example 71, (2S)-N-{(3S,5S)-1-{[(3S,4R)-4-(4-chlorophenyl)-1-(2-methylphenyl)pyrrolidin-3-yl]carbonyl}-5-[(4-methylpiperazin-1-yl)carbonyl]pyrrolidin-3-yl}-N-(cis-4-methylcyclohexyl)tetrahydrofuran-2-carboxamide]
The EC50 of the first is lower: 0.1 to 10 nM for the first, 1000 to 10000 nM for the second. The first is the more potent here.

First: CN1CCN(C(=O)[C@@H]2C[C@H](N(C(=O)C(C)(C)C)C3CCC(C)(C)CC3)CN2C(=O)[C@@H]2CN(c3ncccn3)C[C@H]2c2ccc(Cl)cc2)CC1 [Example 67, N-{(3S,5S)-1-{[(3S,4R)-4-(4-chlorophenyl)-1-pyrimidine-2-ylpyrrolidin-3-yl]carbonyl}-5-[(4-methylpiperazin-1-yl)carbonyl]pyrrolidin-3-yl}-N-(4,4-dimethylcyclohexyl)-2,2-dimethylpropanamide]
Second: CN1CCN(C(=O)[C@@H]2C[C@H](N(C(=O)C(C)(C)C)C3CCC(C)(C)CC3)CN2C(=O)[C@@H]2CN(c3nccs3)C[C@H]2c2ccc(Cl)cc2)CC1 [Example 70, N-{(3S,5S)-1-{[(3S,4R)-4-(4-chlorophenyl)-1-(1,3-thiazole-2-yl)pyrrolidin-3-yl]carbonyl}-5-[(4-methylpiperazin-1-yl)carbonyl]pyrrolidin-3-yl}-N-(4,4-dimethylcyclohexyl)-2,2-dimethylpropanamide]
The EC50 of the first is higher: 1000 to 10000 nM for the first, 100 to 1000 nM for the second. The second is the more potent here.

`CN1CCN(C(=O)[C@@H]2C[C@H](N(C(=O)[C@@H]3CCCO3)[C@H]3CC[C@@H](C)CC3)CN2C(=O)[C@@H]2CN(c3ccccn3)C[C@H]2c2ccc(F)cc2F)CC1` [Example 68, (2S)-N-{(3S,5S)-1-{[(3S,4R)-4-(2,4-difluorophenyl)-1-pyridine-2-ylpyrrolidin-3-yl]carbonyl}-5-[(4-methylpiperazin-1-yl)carbonyl]pyrrolidin-3-yl}-N-(cis-4-methylcyclohexyl)tetrahydrofuran-2-carboxamide] and `CN1CCN(C(=O)[C@@H]2C[C@H](N(C(=O)[C@@H]3CCCO3)[C@H]3CC[C@@H](C)CC3)CN2C(=O)[C@@H]2CN(c3ccc(C#N)cn3)C[C@H]2c2ccc(Cl)cc2)CC1` [Example 69, (2S)-N-{(3S,5S)-1-{[(3S,4R)-4-(4-chlorophenyl)-1-(5-cyanopyridine-2-yl)pyrrolidin-3-yl]carbonyl}-5-[(4-methylpiperazin-1-yl)carbonyl]pyrrolidin-3-yl}-N-(cis-4-methylcyclohexyl)tetrahydrofuran-2-carboxamide] fall in the same range of EC50: 0.1 to 10 nM for the first, 0.1 to 10 nM for the second.

`CN1CCN(C(=O)[C@@H]2C[C@H](N(C(=O)[C@@H]3CCCO3)[C@H]3CC[C@@H](C)CC3)CN2C(=O)[C@@H]2CN(c3ccc(=O)n(C)n3)C[C@H]2c2ccc(Cl)cc2)CC1` [Example 72, (2S)-N-{(3S,5S)-1-{[(3S,4R)-4-(4-chlorophenyl)-1-(1-methyl-6-oxo-1,6-dihydropyridazine-3-yl)pyrrolidin-3-yl]carbonyl}-5-[(4-methylpiperazin-1-yl)carbonyl]pyrrolidin-3-yl}-N-(cis-4-methylcyclohexyl)tetrahydrofuran-2-carboxamide] and `CN1CCN(C(=O)[C@@H]2C[C@H](N(C(=O)[C@@H]3CCCO3)[C@H]3CC[C@@H](C)CC3)CN2C(=O)[C@@H]2CN(c3ccc(=O)[nH]n3)C[C@H]2c2ccc(Cl)cc2)CC1` [Example 73, (2S)-N-{(3S,5S)-1-{[(3S,4R)-4-(4-chlorophenyl)-1-(6-oxo-1,6-dihydropyridazine-3-yl)pyrrolidin-3-yl]carbonyl]-5-[(4-methylpiperazin-1-yl)carbonyl]pyrrolidin-3-yl}-N-(cis-4-methylcyclohexyl)tetrahydrofuran-2-carboxamide] fall in the same range of EC50: 0.1 to 10 nM for the first, 0.1 to 10 nM for the second.

Work on `CN1CCN(C(=O)[C@@H]2C[C@H](N(C(=O)[C@@H]3CCCO3)[C@H]3CC[C@@H](C)CC3)CN2C(=O)[C@@H]2CN(C(C)(C)C)C[C@@H]2c2ccc(Cl)cc2)CC1` [Example 75, (2S)-N-{(3S,5S)-1-{[(3S,4S)-1-tert-butyl-4-(4-chlorophenyl)pyrrolidin-3-yl]carbonyl}-5-[(4-methylpiperazin-1-yl)carbonyl]pyrrolidin-3-yl}-N-(cis-4-methylcyclohexyl)tetrahydrofuran-2-carboxamide] yielded an EC50 of 1000 to 10000 nM.
